The structures appear in SMILES notation.

Test [1] has as its system MC3T3-E1 cells. The experiment in a line: Real-time RT-PCR of hydroxylase enzymes (CYP27A1, CYP27B1), coated titanium implants. It is filed as cell-based, mouse. To be noted: Ti implants, 48 h. As for the experimental part:
To test the effect of the surface modification, 96-well plates were used. Ti disks were placed into the wells and treatments and UV-activation were performed over there. Cells grown onto untreated polystyrene tissue culture plastic (TCP) were added as a control for all the experiments. Cells were seeded at a density of 30,000 cells/cm^2 and they were maintained in α-MEM supplemented with 10% FCS and antibiotics. Culture media was collected after 48 hours, to test cytotoxicity and the production of the hydroxylated form of vitamin D, 25-D3. […]
RNA was isolated from cells using a monophasic solution of phenol and guanidine thiocyanate (Trizol, Roche Diagnostics, Mannheim, Germany) according to the manufacturer's protocol. RNA was quantified at 260 nm using a Nanodrop spectrophotometer (NanoDrop Technologies, Wilmington, Del., USA). […]
To allow relative quantification after PCR, real-time efficiencies were calculated from the given slopes in the LightCycler 480 software (Roche Diagnostics, Mannheim, Germany) using serial dilutions. Relative quantification after PCR was calculated by normalizing target gene concentration in each sample by the concentration mean of the two reference genes in given sample using the Advanced relative quantification method provided by the LightCycler 480 analysis software.
(Quantitative PCR measures a nucleic acid by following its amplification.)

The subject of test [2] is MC3T3-E1 cells. Description: ALP activity in cell monolayer on coated titanium implants. It is filed as cell-based, mouse. To be noted: Ti implants, day 21. As for the experimental part:
To test the effect of the surface modification, 96-well plates were used. Ti disks were placed into the wells and treatments and UV-activation were performed over there. Cells grown onto untreated polystyrene tissue culture plastic (TCP) were added as a control for all the experiments. Cells were seeded at a density of 30,000 cells/cm^2 and they were maintained in α-MEM supplemented with 10% FCS and antibiotics. Culture media was collected after 48 hours, to test cytotoxicity and the production of the hydroxylated form of vitamin D, 25-D3. Cells were harvested after two days of culture using Trizol reagent (Roche Diagnostics, Mannheim, Germany), to analyze gene expression of several osteoblast differentiation markers and enzymes involved in vitamin D synthesis using real-time RT-PCR. On the other hand, MC3T3-E1 cells were harvested after 21 days to measure calcium content and ALP activity in the cell monolayer.
Cell monolayer was collected at 21 cell differentiation days and PBS 0.1% Triton X-100 was added to solubilize proteins. Cell lysates were put into freeze/thaw cycles (liquid nitrogen and 37° C. water bath) to improve protein recovery. After centrifugation at 33,000 g for 15 min at 4° C., supernatants acquired were assayed for ALP activity, calcium content and total protein determination. ALP activity was calculated by measuring the cleavage of p-Nitrophenyl Phosphate (pNPP) (Sigma, St. Louis, Mo., USA) in a soluble yellow end product which absorbs at 405 nm. A volume of 100 μl of this substrate was used in combination with 25 μl of each sample supernatant or standard point. The standard curve was prepared from calf intestinal alkaline phosphatase (CIAP, 1 U/μl) (Promega, Madison, Wis., USA) by mixing 1 μl from the stock CIAP with 5 ml of alkaline phosphatase buffer (1:5000 dilution), and then making 1:5 serial dilutions. Once the reaction was carried out, after 30 min in dark at room temperature, it was stopped with the addition of 50 μl of 3 M sodium hydroxide. At this point, absorbance was read at 405 nm.
Total protein was determined using a BCA protein assay kit (Pierce, Rockford, Ill., USA). For the analysis, cell supernatants were diluted 1:1 in PBS 0.1% Triton X-100. Standard curve and samples were analyzed as described by the manufacturer and reading the absorbance at 562 nm.

Regarding `CC(C)CCC[C@@H](C)[C@H]1CC[C@H]2C3=CC=C4C[C@@H](O)CC[C@]4(C)[C@H]3CC[C@]12C` [7-DHC, 7-dehydrocholesterol], the CYP27B1 gene expression entry in the test with MC3T3-E1 cells [1] (increasing UV exposure time, significant vs UV-untreated at 15 and 30 min) is “upregulated”. The “CYP27A1 mRNA gene expression” value in the test with MC3T3-E1 cells [1] (with UV irradiation time, maximum after 15 min) is “trend to increase”. The ALP activity result in the test on MC3T3-E1 cells [2] (UV-treated vs UV-untreated group) was “significant higher ALP activity”; in the test with MC3T3-E1 cells [2] (UV-untreated, percentage of ethanol UV-untreated group set to 100%, mean±SEM), 44.75±3.50%.

The values are drawn from patent publication US8821568B2, “Implant modified with non-hydroxylated vitamin D precursors” (Numat Biomedical S.L., priority 2008, dated 2014).
